Experimental data from US9249517B2, “Process for production of reduced glutathione” (Kyowa Hakko Bio Co., Ltd., priority 2009, dated 2016).

How the values were obtained:
[1] = 25° C., 24-36 hr
Experimental: Using an aqueous reduced glutathione solution (100 g/L, pH 2.90) and sulfuric acid, aqueous reduced glutathione solutions (100 g/L) adjusted to pH 0.6, 1.2 and 2.0 were produced.
Each solution was preserved at 25° C. for 24-36 hr, and the residual amount of reduced glutathione was quantified by high performance liquid chromatography (HPLC) under the following conditions. […] As for the impurity, the total amount of the substances other than reduced glutathione and oxidized glutathione was quantified under the following HPLC conditions, and the concentration (g/L) converted to reduced glutathione was calculated.
HPLC Conditions • column: Nucleosil 100-5 C18 φ4.6×150 mm • column temperature: 40° C. • buffer: 10% acetonitrile solution containing 0.405% sodium 1-heptanesulfonate (adjusted to pH 2.0 with phosphoric acid) • flow rate: 1.0 mL/min • detector: UV detector (wavelength 210 nm)

[2] = Solubility of oxidized glutathione in water; type: physicochemical
Text: Utilizing this characteristic, a solution of oxidized glutathione with concentration beyond saturation solubility can be prepared. […] While the concentration of the supersaturated aqueous oxidized glutathione solution containing a conducting agent other than acid is not limited as long as it can maintain supersaturation state, it is 50 g/L or more, preferably 100 g/L or more, more preferably 150 g/L or more, further preferably 200 g/L or more, most preferably 300 g/L or more.

Molecule	reduced glutathione residual ratio ([1]; 100 g/L aqueous solution at pH 2.0 or less (pH 0.6, 1.2, 2.0, sulfuric acid) vs pH 2.90, FIG. 1A)	increased amount of impurity due to hydrolysis ([1]; 100 g/L aqueous solution at pH 2.0 or less vs pH 2.90, FIG. 1B)	stability of supersaturation state ([2]; ambient temperature, requires several days before crystallizing)	supersaturation solubility ([2]; once dissolved, aqueous solution)	saturation solubility in water ([2]; water, ambient temperature (25° C.))
N[C@@H](CCC(=O)N[C@@H](CS)C(=O)NCC(=O)O)C(=O)O [reduced glutathione]	lower reduced glutathione residual ratio as compared to a solution at pH 2.90	higher increased amount of impurity due to hydrolysis as compared to a solution at pH 2.90	–	–	–
oxidized glutathione	–	–	stable at ambient temperature	over 300 g/L	≤ 20 mg/mL
